In brackets after ≈: the same amount, converted by molar mass.
Columns and labels:
Assay type in all cases: functional
Streptococcus pyogenes [1] = experiment: Antimicrobial activity against ciprofloxacin-nonsusceptible Streptococcus pyogenes isolates by agar dilution method
Streptococcus pyogenes [2] = experiment: Antimicrobial activity against ciprofloxacin-nonsusceptible Streptococcus pyogenes isolates assessed as susceptible isolates by agar dilution method
Streptococcus pyogenes [3] = experiment: Antimicrobial activity against ciprofloxacin-nonsusceptible Streptococcus pyogenes isolates assessed as intermediate resistant isolates by agar dilution method
Streptococcus pyogenes [4] = experiment: Antimicrobial activity against ciprofloxacin-nonsusceptible Streptococcus pyogenes isolates assessed as resistant isolates by agar dilution method
Streptococcus pyogenes [5] = experiment: Antimicrobial activity against ciprofloxacin-nonsusceptible, AD PFGE pattern, emm6 type Streptococcus pyogenes with ST382 sequence type, ParC S79A mutant isolated from oropharyngeal colonization, tonsillitis/pharyngitis and skin/soft tissue infection
Streptococcus pyogenes [6] = experiment: Antimicrobial activity against ciprofloxacin-nonsusceptible, AD PFGE pattern, […] sequence type, ParC S79A mutant isolated from oropharyngeal colonization and onsillitis/pharyngitis
Streptococcus pyogenes [7] = experiment: Antimicrobial activity against ciprofloxacin-nonsusceptible, AD PFGE pattern, […] sequence type, ParC S79A mutant isolated from oropharyngeal colonization
Streptococcus pyogenes [8] = experiment: Antimicrobial activity against ciprofloxacin-nonsusceptible, DX PFGE pattern, emm6 type Streptococcus pyogenes with ST382 sequence type, ParC S79A mutant isolated from oropharyngeal colonization
Streptococcus pyogenes [9] = experiment: Antimicrobial activity against ciprofloxacin-nonsusceptible, DY PFGE pattern, emm6 type Streptococcus pyogenes with ST382 sequence type, ParC S79A mutant isolated from oropharyngeal colonization
Streptococcus pyogenes [10] = experiment: Antimicrobial activity against ciprofloxacin-nonsusceptible, AM PFGE pattern, emm6 type Streptococcus pyogenes with ST382 sequence type, ParC S79A mutant isolated from oropharyngeal colonization
Streptococcus pyogenes [11] = experiment: Antimicrobial activity against ciprofloxacin-nonsusceptible, BT PFGE pattern, emm28 type Streptococcus pyogenes with ST52 sequence type, ParC D83G mutant isolated from skin/soft tissue infection
Streptococcus pyogenes [12] = experiment: Antimicrobial activity against ciprofloxacin-nonsusceptible, CJ PFGE pattern, emm89 type Streptococcus pyogenes with ST101 sequence type isolated from tonsillitis/pharyngitis
Streptococcus pyogenes [13] = experiment: Antimicrobial activity against ciprofloxacin-nonsusceptible, K PFGE pattern, emm5 type Streptococcus pyogenes with ST99 sequence type, ParC D83G isolated from oropharyngeal colonization

Row | SMILES | MIC (Streptococcus pyogenes [1]) | MIC50 (Streptococcus pyogenes [1]) | MIC90 (Streptococcus pyogenes [1]) | Activity (Streptococcus pyogenes [2]) | Activity (Streptococcus pyogenes [3]) | Activity (Streptococcus pyogenes [4]) | MIC (Streptococcus pyogenes [5]) | MIC (Streptococcus pyogenes [6]) | MIC (Streptococcus pyogenes [7]) | MIC (Streptococcus pyogenes [8]) | MIC (Streptococcus pyogenes [9]) | MIC (Streptococcus pyogenes [10]) | MIC (Streptococcus pyogenes [11]) | MIC (Streptococcus pyogenes [12]) | MIC (Streptococcus pyogenes [13])
1 | CC1(C)S[C@@H]2[C@H](NC(=O)[C@H](N)c3ccccc3)C(=O)N2[C@H]1C(=O)O [AMPICILLIN] | ≤ 0.25 µg/mL | ≤ 0.25 µg/mL | ≤ 0.25 µg/mL | 100% | 0% | 0% | – | – | – | – | – | – | – | – | –
2 | CC[C@H]1OC(=O)[C@H](C)[C@@H](O[C@H]2C[C@@](C)(OC)[C@@H](O)[C@H](C)O2)[C@H](C)[C@@H](O[C@@H]2O[C@H](C)C[C@H](N(C)C)[C@H]2O)[C@](C)(O)C[C@@H](C)C(=O)[C@H](C)[C@@H](O)[C@]1(C)O [ERYTHROMYCIN] | ≤ 0.25 µg/mL | ≤ 0.25 µg/mL | ≤ 0.25 µg/mL | 98.5% | 0% | 1.5% | – | – | – | – | – | – | – | – | –
3 | CN(C)[C@@H]1C(O)=C(C(N)=O)C(=O)[C@@]2(O)C(O)=C3C(=O)c4c(O)cccc4[C@@](C)(O)[C@H]3C[C@@H]12 [TETRACYCLINE] | ≤ 2 µg/mL | ≤ 2 µg/mL | ≤ 2 µg/mL | 98.5% | 0% | 1.5% | – | – | – | – | – | – | – | – | –
4 | C[C@H]1COc2c(N3CCN(C)CC3)c(F)cc3c(=O)c(C(=O)O)cn1c23.C[C@H]1COc2c(N3CCN(C)CC3)c(F)cc3c(=O)c(C(=O)O)cn1c23.O [LEVOFLOXACIN] | 2 µg/mL | 2 µg/mL | 2 µg/mL | 92.4% | 7.6% | 0% | 2 µg/mL | 2 µg/mL | 4 µg/mL | 2 µg/mL | 2 µg/mL | 2 µg/mL | 2 µg/mL | 2 µg/mL | 2 µg/mL
5 | CN[C@H](CC(C)C)C(=O)N[C@H]1C(=O)N[C@@H](CC(N)=O)C(=O)N[C@H]2C(=O)N[C@H]3C(=O)N[C@H](C(=O)N[C@H](C(=O)O)c4cc(O)cc(O)c4-c4cc3ccc4O)[C@H](O)c3ccc(c(Cl)c3)Oc3cc2cc(c3O[C@@H]2O[C@H](CO)[C@@H](O)[C@H](O)[C@H]2O[C@H]2C[C@](C)(N)[C@H](O)[C@H](C)O2)Oc2ccc(cc2Cl)[C@H]1O [VANCOMYCIN] | ≤ 0.25 µg/mL | 0.5 µg/mL (≈ 0.345 µM) | 0.5 µg/mL (≈ 0.345 µM) | 100% | 0% | 0% | – | – | – | – | – | – | – | – | –
6 | CN(C)c1cc(NC(=O)CNC(C)(C)C)c(O)c2c1C[C@H]1C[C@H]3[C@H](N(C)C)C(O)=C(C(N)=O)C(=O)[C@@]3(O)C(O)=C1C2=O [TIGECYCLINE] | 0.025 µg/mL (≈ 0.0427 µM) | – | – | – | – | – | – | – | – | – | – | – | – | – | –
7 | CO/N=C(\C(=O)N[C@@H]1C(=O)N2C(C(=O)O)=C(COC(C)=O)CS[C@H]12)c1csc(N)n1 [CEFOTAXIME] | ≤ 0.06 µg/mL | ≤ 0.06 µg/mL | ≤ 0.06 µg/mL | 100% | 0% | 0% | – | – | – | – | – | – | – | – | –
8 | CCC[C@@H]1C[C@@H](C(=O)N[C@@H]([C@H]2O[C@H](SC)[C@H](O)[C@@H](O)[C@H]2O)[C@H](C)Cl)N(C)C1 [CLINDAMYCIN] | ≤ 0.25 µg/mL | ≤ 0.25 µg/mL | ≤ 0.25 µg/mL | 98.5% | 0% | 1.5% | – | – | – | – | – | – | – | – | –
9 | COc1c(N2C[C@@H]3CCCN[C@@H]3C2)c(F)cc2c(=O)c(C(=O)O)cn(C3CC3)c12 [MOXIFLOXACIN] | ≤ 0.25 µg/mL | 0.5 µg/mL (≈ 1.25 µM) | 0.5 µg/mL (≈ 1.25 µM) | – | – | – | – | 0.5 µg/mL (≈ 1.25 µM) | 1 µg/mL (≈ 2.49 µM) | 0.5 µg/mL (≈ 1.25 µM) | 0.5 µg/mL (≈ 1.25 µM) | 0.5 µg/mL (≈ 1.25 µM) | – | 0.5 µg/mL (≈ 1.25 µM) | 0.5 µg/mL (≈ 1.25 µM)
10 | O=C(O)c1cn(C2CC2)c2cc(N3CCNCC3)c(F)cc2c1=O [CIPROFLOXACIN] | 2 µg/mL (≈ 6.04 µM) | – | – | – | – | – | 2 µg/mL (≈ 6.04 µM) | 2 µg/mL (≈ 6.04 µM) | 4 µg/mL (≈ 12.1 µM) | 2 µg/mL (≈ 6.04 µM) | 4 µg/mL (≈ 12.1 µM) | 2 µg/mL (≈ 6.04 µM) | 2 µg/mL (≈ 6.04 µM) | 2 µg/mL (≈ 6.04 µM) | 2 µg/mL (≈ 6.04 µM)
11 | CC1(C)S[C@@H]2[C@H](NC(=O)Cc3ccccc3)C(=O)N2[C@H]1C(=O)O [PENICILLIN G] | ≤ 0.03 µg/mL | ≤ 0.03 µg/mL | ≤ 0.03 µg/mL | 100% | 0% | 0% | – | – | – | – | – | – | – | – | –

From ChEMBL document CHEMBL1275587, “Emergence of ciprofloxacin-nonsusceptible Streptococcus pyogenes isolates from healthy children and pediatric patients in Portugal” (2010)
